According to article doi:10.1101/2021.09.30.462449v1 (biorxiv, 2021):

Key:
Test in all cases: biochemical
Conditions in all cases: read-out: % inhibition mean (Z'Lyte)
RET Y791F = RET Y791F (Homo sapiens, UniProt P07949, Y791F)
ACVR1B (ALK4) = ACVR1B (ALK4) (Homo sapiens, UniProt P36896)
PRKD1 (PKC mu) = PRKD1 (PKC mu) (Homo sapiens, UniProt Q15139)
NTRK2 (TRKB) = NTRK2 (TRKB) (Homo sapiens, UniProt Q16620)
KIT = KIT (Homo sapiens, UniProt P10721)
FYN = FYN (Homo sapiens, UniProt P06241)
ADRBK2 (GRK3) = ADRBK2 (GRK3) (Homo sapiens, UniProt P35626)
ROS1 = ROS1 (Homo sapiens, UniProt P08922)
EPHA2 = EPHA2 (Homo sapiens, UniProt P29317)
HIPK4 = HIPK4 (Homo sapiens, UniProt Q8NE63)
ERBB2 (HER2) = ERBB2 (HER2) (Homo sapiens, UniProt P04626)
AMPK A2/B1/G1 = AMPK A2/B1/G1 (Homo sapiens, UniProt P54646)
AMPK (A2/B2/G3) = AMPK (A2/B2/G3) (Homo sapiens, UniProt P54646)
LCK = LCK (Homo sapiens, UniProt P06239)
LYN B = LYN B (Homo sapiens, UniProt P07948)
MARK4 = MARK4 (Homo sapiens, UniProt Q96L34)
MAPKAPK3 = MAPKAPK3 (Homo sapiens, UniProt Q16644)
MAP3K19 (YSK4) = MAP3K19 (YSK4) (Homo sapiens, UniProt Q56UN5)
PDGFRA (PDGFR alpha) = PDGFRA (PDGFR alpha) (Homo sapiens, UniProt P16234)
CSK = CSK (Homo sapiens, UniProt P41240)
JAK1 = JAK1 (Homo sapiens, UniProt P23458)
PDGFRB (PDGFR beta) = PDGFRB (PDGFR beta) (Homo sapiens, UniProt P09619)
CSNK1G1 (CK1 gamma 1) = CSNK1G1 (CK1 gamma 1) (Homo sapiens, UniProt Q9HCP0)
JAK2 JH1 JH2 V617F = JAK2 JH1 JH2 V617F (Homo sapiens, UniProt O60674, V617F)
EPHB1 = EPHB1 (Homo sapiens, UniProt P54762)
AMPK (A1/B2/G3) = AMPK (A1/B2/G3) (Homo sapiens, UniProt Q13131)
PIM1 = PIM1 (Homo sapiens, UniProt P11309)
EPHB3 = EPHB3 (Homo sapiens, UniProt P54753)
RPS6KA1 (RSK1) = RPS6KA1 (RSK1) (Homo sapiens, UniProt Q15418)

Sequence of FYN (P06241 whole entry): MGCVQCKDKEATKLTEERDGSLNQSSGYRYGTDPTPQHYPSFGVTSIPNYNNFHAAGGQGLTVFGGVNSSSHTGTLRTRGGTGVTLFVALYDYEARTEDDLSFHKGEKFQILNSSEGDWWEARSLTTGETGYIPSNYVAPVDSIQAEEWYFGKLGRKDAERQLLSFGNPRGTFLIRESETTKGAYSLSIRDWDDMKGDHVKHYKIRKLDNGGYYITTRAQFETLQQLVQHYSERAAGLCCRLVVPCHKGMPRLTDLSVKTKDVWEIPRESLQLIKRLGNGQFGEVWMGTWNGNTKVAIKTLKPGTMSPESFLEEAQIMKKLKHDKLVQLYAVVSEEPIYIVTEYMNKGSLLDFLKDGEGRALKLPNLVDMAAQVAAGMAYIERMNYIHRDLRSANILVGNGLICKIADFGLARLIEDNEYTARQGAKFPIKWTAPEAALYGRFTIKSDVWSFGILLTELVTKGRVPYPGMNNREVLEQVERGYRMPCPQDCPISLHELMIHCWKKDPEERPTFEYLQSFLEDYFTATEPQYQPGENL
Sequence of MAPKAPK3 (Q16644 whole entry): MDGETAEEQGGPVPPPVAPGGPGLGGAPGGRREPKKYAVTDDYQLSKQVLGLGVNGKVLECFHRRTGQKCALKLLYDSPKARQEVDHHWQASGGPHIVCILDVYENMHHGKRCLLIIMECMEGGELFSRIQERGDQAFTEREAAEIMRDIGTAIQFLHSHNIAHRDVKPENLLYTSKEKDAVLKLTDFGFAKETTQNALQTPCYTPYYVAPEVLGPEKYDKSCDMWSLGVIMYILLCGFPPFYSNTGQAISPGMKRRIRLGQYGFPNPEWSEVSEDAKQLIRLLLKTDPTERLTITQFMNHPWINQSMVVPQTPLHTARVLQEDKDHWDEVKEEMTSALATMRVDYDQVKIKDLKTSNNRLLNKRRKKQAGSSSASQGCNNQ
Sequence of PIM1 (P11309 whole entry): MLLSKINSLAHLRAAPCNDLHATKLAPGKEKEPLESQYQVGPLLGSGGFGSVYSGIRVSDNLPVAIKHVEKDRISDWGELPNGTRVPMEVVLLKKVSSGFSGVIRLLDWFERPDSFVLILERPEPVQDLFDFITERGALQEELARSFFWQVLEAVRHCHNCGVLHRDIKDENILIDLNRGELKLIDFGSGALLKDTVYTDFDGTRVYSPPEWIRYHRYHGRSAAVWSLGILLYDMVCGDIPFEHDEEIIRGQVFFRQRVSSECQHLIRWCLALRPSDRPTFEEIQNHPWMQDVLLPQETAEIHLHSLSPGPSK
Sequence of MAP3K19 (YSK4) (Q56UN5 whole entry): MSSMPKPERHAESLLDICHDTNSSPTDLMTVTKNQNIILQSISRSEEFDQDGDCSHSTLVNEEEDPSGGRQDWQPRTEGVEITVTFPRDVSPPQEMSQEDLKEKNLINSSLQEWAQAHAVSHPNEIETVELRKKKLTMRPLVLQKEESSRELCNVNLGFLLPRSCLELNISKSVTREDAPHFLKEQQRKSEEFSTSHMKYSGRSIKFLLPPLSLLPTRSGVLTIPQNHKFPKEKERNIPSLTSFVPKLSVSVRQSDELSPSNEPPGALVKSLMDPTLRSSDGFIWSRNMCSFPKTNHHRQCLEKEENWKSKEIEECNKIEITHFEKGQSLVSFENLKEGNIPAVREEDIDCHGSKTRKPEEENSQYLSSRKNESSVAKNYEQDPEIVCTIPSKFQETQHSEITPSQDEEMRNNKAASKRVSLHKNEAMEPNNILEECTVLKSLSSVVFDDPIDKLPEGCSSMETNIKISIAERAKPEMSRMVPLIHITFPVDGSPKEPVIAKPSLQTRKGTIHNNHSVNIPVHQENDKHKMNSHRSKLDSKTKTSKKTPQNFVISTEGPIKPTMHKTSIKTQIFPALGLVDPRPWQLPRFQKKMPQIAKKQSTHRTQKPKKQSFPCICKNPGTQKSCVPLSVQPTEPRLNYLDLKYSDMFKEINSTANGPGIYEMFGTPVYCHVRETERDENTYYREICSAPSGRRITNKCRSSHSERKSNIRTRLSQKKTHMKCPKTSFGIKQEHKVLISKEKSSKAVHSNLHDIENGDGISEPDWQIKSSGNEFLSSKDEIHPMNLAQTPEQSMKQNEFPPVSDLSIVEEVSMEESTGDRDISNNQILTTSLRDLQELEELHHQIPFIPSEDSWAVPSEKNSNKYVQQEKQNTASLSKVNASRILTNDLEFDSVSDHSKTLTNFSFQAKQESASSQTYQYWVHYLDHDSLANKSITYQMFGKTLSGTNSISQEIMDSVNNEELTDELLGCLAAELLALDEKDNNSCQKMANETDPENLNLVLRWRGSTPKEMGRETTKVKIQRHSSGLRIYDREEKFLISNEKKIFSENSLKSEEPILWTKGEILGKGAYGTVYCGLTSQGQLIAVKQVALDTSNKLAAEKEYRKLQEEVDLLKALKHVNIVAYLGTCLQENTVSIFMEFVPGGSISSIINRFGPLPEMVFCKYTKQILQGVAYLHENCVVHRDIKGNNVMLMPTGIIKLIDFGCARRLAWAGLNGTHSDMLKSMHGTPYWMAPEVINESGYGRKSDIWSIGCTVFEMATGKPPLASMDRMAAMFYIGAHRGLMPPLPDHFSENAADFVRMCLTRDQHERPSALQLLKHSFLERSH
Sequence of RET Y791F (P07949 whole entry Y791F): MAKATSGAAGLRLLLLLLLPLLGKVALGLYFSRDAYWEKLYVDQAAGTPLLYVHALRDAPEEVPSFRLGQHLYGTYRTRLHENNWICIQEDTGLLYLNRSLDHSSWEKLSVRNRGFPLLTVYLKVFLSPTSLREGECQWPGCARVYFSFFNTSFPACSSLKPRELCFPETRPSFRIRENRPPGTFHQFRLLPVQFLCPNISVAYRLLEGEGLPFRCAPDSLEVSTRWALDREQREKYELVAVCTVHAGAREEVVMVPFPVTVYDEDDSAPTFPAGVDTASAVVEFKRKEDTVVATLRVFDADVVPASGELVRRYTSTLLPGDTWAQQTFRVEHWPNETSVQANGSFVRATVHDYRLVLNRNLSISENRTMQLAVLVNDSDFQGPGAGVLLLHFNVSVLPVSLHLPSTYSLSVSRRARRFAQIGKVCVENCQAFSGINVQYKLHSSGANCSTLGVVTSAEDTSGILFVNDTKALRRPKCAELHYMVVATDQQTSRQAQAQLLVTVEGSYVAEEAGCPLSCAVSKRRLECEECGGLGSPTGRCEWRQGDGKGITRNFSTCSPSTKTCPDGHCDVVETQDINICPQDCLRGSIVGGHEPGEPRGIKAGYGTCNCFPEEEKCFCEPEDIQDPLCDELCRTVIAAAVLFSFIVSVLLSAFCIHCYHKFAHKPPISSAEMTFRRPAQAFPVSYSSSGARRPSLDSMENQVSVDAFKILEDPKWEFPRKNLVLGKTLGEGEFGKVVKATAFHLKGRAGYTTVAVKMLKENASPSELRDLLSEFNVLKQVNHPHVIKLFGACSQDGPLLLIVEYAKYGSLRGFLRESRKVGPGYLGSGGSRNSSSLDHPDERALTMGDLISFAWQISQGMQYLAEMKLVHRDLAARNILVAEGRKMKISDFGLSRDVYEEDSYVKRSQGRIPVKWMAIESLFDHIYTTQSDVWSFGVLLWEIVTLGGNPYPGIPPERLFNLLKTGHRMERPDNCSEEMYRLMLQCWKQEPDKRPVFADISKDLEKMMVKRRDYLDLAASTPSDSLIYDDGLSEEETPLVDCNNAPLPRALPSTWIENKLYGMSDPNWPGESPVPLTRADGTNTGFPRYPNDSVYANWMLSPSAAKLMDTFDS
Sequence of PRKD1 (PKC mu) (Q15139 whole entry): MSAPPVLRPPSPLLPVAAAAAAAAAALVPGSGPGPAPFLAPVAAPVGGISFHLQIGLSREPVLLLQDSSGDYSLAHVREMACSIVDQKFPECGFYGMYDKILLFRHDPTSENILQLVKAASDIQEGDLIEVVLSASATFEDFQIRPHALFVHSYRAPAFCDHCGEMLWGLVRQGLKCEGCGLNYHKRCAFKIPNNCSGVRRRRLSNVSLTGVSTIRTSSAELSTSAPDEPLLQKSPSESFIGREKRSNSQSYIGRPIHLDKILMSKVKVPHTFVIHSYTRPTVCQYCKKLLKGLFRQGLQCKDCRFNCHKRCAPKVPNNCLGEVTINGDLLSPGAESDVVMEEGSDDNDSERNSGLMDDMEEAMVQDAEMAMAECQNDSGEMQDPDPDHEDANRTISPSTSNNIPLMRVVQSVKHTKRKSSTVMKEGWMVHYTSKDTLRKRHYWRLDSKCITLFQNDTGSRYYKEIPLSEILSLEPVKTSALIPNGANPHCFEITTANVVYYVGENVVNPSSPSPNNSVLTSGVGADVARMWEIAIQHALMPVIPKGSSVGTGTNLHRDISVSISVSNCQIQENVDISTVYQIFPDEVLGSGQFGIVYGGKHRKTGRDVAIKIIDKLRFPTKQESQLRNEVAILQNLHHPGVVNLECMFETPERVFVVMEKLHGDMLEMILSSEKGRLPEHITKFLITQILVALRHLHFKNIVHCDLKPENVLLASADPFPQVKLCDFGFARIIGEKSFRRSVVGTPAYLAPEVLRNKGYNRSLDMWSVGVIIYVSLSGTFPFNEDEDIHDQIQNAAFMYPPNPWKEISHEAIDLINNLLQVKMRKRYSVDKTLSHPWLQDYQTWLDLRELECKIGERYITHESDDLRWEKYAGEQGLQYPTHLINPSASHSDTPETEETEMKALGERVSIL
Sequence of CSK (P41240 whole entry): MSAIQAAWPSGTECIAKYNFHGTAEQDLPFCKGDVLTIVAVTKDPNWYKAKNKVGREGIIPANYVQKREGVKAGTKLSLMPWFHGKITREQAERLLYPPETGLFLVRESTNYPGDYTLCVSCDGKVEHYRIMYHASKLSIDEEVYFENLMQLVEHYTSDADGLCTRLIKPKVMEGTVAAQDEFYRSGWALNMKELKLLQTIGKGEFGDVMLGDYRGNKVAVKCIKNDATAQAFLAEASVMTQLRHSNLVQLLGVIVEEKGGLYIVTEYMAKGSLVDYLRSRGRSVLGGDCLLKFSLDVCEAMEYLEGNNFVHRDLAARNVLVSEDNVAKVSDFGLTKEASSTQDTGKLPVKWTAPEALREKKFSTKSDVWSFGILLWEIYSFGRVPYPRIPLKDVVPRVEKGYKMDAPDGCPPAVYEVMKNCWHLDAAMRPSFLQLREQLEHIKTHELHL

COc1ccc2nc3cc(Cl)ccc3c(Nc3cc(CN4CCCC4)c(O)c(CN4CCCC4)c3)c2n1 [Pyronaridine, 4-[(7-Chloro-2-methoxybenzo[b][1,5]naphthyridin-10-yl)amino]-2,6-bis(1-pyrrolidinylmethyl)phenol phosphate (1:4)]
inhibition at 1 µM (RET Y791F): 5% | inhibition at 1 µM (ACVR1B (ALK4)): -1% | inhibition at 1 µM (PRKD1 (PKC mu)): -2% | inhibition at 1 µM (NTRK2 (TRKB)): 1% | inhibition at 1 µM (KIT): -2% | inhibition at 1 µM (FYN): 2% | inhibition at 1 µM (ADRBK2 (GRK3)): -5% | inhibition at 1 µM (ROS1): -6% | inhibition at 1 µM (EPHA2): 5% | inhibition at 1 µM (HIPK4): 5% | inhibition at 1 µM (ERBB2 (HER2)): 2% | inhibition at 1 µM (AMPK A2/B1/G1): 2% | inhibition at 1 µM (AMPK (A2/B2/G3)): 2% | inhibition at 1 µM (LCK): 12% | inhibition at 1 µM (LYN B): -2% | inhibition at 1 µM (MARK4): -4% | inhibition at 1 µM (MAPKAPK3): 17% | inhibition at 1 µM (MAP3K19 (YSK4)): 3% | inhibition at 1 µM (PDGFRA (PDGFR alpha)): 2% | inhibition at 1 µM (CSK): -3% | inhibition at 1 µM (JAK1): 0% | inhibition at 1 µM (PDGFRB (PDGFR beta)): 0% | inhibition at 1 µM (CSNK1G1 (CK1 gamma 1)): 0% | inhibition at 1 µM (JAK2 JH1 JH2 V617F): 0% | inhibition at 1 µM (EPHB1): 2% | inhibition at 1 µM (AMPK (A1/B2/G3)): 4% | inhibition at 1 µM (PIM1): 8% | inhibition at 1 µM (EPHB3): -1% | inhibition at 1 µM (RPS6KA1 (RSK1)): -1%
